Reference: patent US5962487A, “Antipicornaviral compounds and methods for their use and preparation” (Agouron Pharmaceuticals, Inc., priority 1997, dated 1999)

How the values were obtained:
[1] = molecular target: T1, Rhinovirus 3C protease (RVP) serotype 2 (Human rhinovirus 2, UniProt P04936); test: Inhibition of Rhinovirus Protease, serotype 2 (FRET assay); format: biochemical; settings: enzyme start experiments, read-out: kobs/I
T1 construct: Recombinant Rhinovirus 3C proteases from serotypes 14, 16, 2 or 89 were prepared; made in house
Procedure: (§1) Stock solutions (50 mM, in DMSO) of various compounds were prepared; dilutions were in the same solvent. Recombinant Rhinovirus 3C proteases from serotypes 14, 16, 2 or 89 were prepared by the following standard chromatographic procedures: (1) ion exchange using Q Sepharose Fast Flow from Pharmacia; (2) affinity chromatography using Affi-Gel Blue from Biorad; and (3) sizing using Sephadex G-100 from Pharmacia. Assays contained 2% DMSO, 50 mM tris pH 7.6, 1 mM EDTA, a compound at the indicated concentrations, approximately 1 μM substrate, and 50-100 nM protease. For Ki determinations, the compound and the enzyme were preincubated for 10 minutes at 30° C. prior to addition of the substrate (substrate start). The kobs/I values were obtained from reactions initiated by addition of enzyme rather than substrate. RVP activity is measured in the fluorescence resonance energy transfer assay. The substrate was (N-terminal) DABCYL-(Gly-Arg-Ala-Val-Phe-Gln-Gly-Pro-Val-Gly)-EDANS. In the uncleaved peptide, the EDANS fluorescence was quenched by the proximal DABCYL moiety. When the peptide was cleaved, the quenching was relieved, and activity was measured as an increase in fluorescence signal.
(§2) In the above table, all data is for RVP serotype-14 unless otherwise noted in parentheses. All strains of human rhinovirus (HRV) were purchased from American Type Culture Collection (ATCC), except for serotype 14, which was produced from the infectious cDNA clone constructed and supplied to us by Dr. Roland Rueckert at the Institute for Molecular Virology, University of Wisconsin, Madison, Wis. The column designated INHIB represents the percent inhibition, with the concentration of the compound in μM indicated in parentheses, unless Ki was assigned as designated by (Ki), at 10 minute preincubation with 50 nM RVP prior to addition of substrate was used. The data in the column designated kobs/I was measured from progress curves in enzyme start experiments.

[2] = molecular target: T2, Rhinovirus 3C protease (RVP) serotype 16 (Human rhinovirus 16, UniProt Q82122); test: Inhibition of Rhinovirus Protease, serotype 16 (FRET assay); format: biochemical; settings: enzyme start experiments, read-out: kobs/I
T2 construct: Recombinant Rhinovirus 3C proteases from serotypes 14, 16, 2 or 89 were prepared; made in house
Procedure: as §1, §2

[3] = molecular target: T3, Rhinovirus 3C protease (RVP) serotype-14 (Human rhinovirus 14, UniProt P03303); test: Inhibition of Rhinovirus Protease, serotype 14 (FRET assay); format: biochemical; settings: read-out: kobs/I
T3 construct: Recombinant Rhinovirus 3C proteases from serotypes 14, 16, 2 or 89 were prepared; made in house
Method in brief: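 Recombinant HRV 3C protease (50–100 nM) in 50 mM tris pH 7.6, 1 mM EDTA, 2% DMSO, with ~1 μM DABCYL-GRAVFQGPVG-EDANS FRET substrate; cleavage read as fluorescence increase. Ki: compound and enzyme preincubated 10 min at 30° C before substrate start; kobs/I from enzyme-start progress curves. Values are percent inhibition at stated μM, or Ki.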

[4] = test system: ECHO-11; test: Echovirus-11 MRC5 Cell Culture Assay; format: cell-based, Echovirus strain 11
Procedure: The Echovirus strain 11 (ECHO-11) and Enterovirus strain 70 (ENT-70) were purchased from American Type Culture Collection (ATCC). Virus stocks were propagated and antiviral assays were performed in MRC5 cells (ATCC). Cells were grown in Minimal Essential Medium with 10% fetal bovine serum.
(§3) The ability of compounds to protect cells against ECHO-11 or ENT-70 infection was measured by the XTT dye reduction method. Briefly, MRC5 cells were infected with ECHO-11 or ENT-70 at a multiplicity of infection (m.o.i.) of 0.0013 (ECHO-11) and 0.0017 (ENT-70) or mock-infected with medium only. Infected or uninfected cells were resuspended at 2×10^4 cells per mL and incubated with appropriate concentrations of drug. One day later, XTT/PMS was added to test plates, and the amount of formazan produced was quantified spectrophotometrically at 450/650 nm. The EC50 was calculated as the concentration of drug that increased the percentage of formazan production in drug-treated, virus-infected cells to 50% of that produced by drug-free, uninfected cells. The 50% cytotoxic dose (CC50) was calculated as the concentration of drug that decreased the percentage of formazan produced in drug-treated, uninfected cells to 50% of that produced in drug-free, uninfected cells. The therapeutic index (TI) was calculated by dividing the CC50 by the EC50.

[5] = in vitro; format: cell-based; settings: human, hi-hela cells
Procedure: as §3, with “CVA-21” for “ECHO-11”, “CVB-3” for “ENT-70”, “HI-HeLa” for “MRC5”, “0.05 (CVA-21)” for “0.0013 (ECHO-11)”, “0.08 (CVB-3)” for “0.0017 (ENT-70)”, “4×10^4” for “2×10^4”
(§4) The Coxsackie strains A-21 (CVA-21) and B-3 (CVB-3) were purchased from American Type Culture Collection (ATCC). Virus stocks were propagated and antiviral assays were performed in HI-HeLa cells (ATCC). Cells were grown in Minimal Essential Medium with 10% fetal bovine serum.

[6] = in vitro; format: cell-based; settings: human, hi-hela cells; remark: listed apart in the source
Method in brief: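 HI-HeLa cells infected with HRV-14 at m.o.i. 0.13 or mock-infected, incubated with compounds for two days; XTT/PMS formazan read at 450/650 nm. EC50 as concentration restoring formazan to 50% of mock-infected level; CC50 from mock-infected cells; TI = CC50/EC50.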

[7] = test system: CVB-3; test: Anticoxsackieviral HI-HeLa Cell Culture Assay, CVB-3; format: cell-based, Coxsackie strain B-3
Procedure: as §3, with “CVA-21” for “ECHO-11”, “CVB-3” for “ENT-70”, “HI-HeLa” for “MRC5”, “0.05 (CVA-21)” for “0.0013 (ECHO-11)”, “0.08 (CVB-3)” for “0.0017 (ENT-70)”, “4×10^4” for “2×10^4”
as §4

T2 sequence (Q82122 1511-1693): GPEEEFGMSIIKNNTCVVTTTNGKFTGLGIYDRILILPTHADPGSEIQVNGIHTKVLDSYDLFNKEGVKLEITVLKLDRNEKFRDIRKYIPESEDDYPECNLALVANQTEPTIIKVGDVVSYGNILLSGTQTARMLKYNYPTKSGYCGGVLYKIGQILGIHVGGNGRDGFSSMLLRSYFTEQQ
T1 sequence (P04936 1508-1690): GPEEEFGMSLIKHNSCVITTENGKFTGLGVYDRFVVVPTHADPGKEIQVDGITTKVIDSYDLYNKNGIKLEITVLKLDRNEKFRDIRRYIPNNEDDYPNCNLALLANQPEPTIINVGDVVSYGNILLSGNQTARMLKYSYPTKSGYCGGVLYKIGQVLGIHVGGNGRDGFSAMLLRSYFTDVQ
T3 sequence (P03303 1538-1719): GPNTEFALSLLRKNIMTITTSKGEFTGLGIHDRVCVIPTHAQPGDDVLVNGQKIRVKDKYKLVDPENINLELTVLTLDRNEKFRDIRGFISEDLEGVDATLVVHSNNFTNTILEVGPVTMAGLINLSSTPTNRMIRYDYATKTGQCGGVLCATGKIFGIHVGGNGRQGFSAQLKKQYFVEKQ

CCOC(=O)/C=C/[C@H](CCC(N)=O)NC(=O)[C@H](Cc1ccccc1)N(C)C(=O)[C@H](CC(C)C)NC(=O)OCc1ccccc1 [Compound 2, Ethyl-3-(CBZ-L-Leu-L-N-Me-Phe-L-Gln)-E-Propenoate]
kinact/KI [1]: 617 M⁻¹ s⁻¹ | kinact/KI [2]: 1040 M⁻¹ s⁻¹ | kinact/KI [3]: 5300 M⁻¹ s⁻¹ | TI ([4]; CC50/EC50, ECHO-11, 1440 min): 18 | EC50 ([4]; Echovirus, 24 h, ECHO-11 infection of MRC5 cells, XTT, one day): 3.1 µM | CC50 at 24 h [5]: 56 µM | CC50 at 48 h [6]: 56 µM | EC50 ([7]; 24 h, CVB-3 infection of Hi-HeLa cells, XTT, one day): 2 µM | TI ([7]; CC50/EC50, CVB-3): 28
